Data published in patent US6592885B2, “Method for making infection-resistant fabricated textile articles for biomedical applications” (priority 2001, dated 2003).

What was measured:
S. aureus = test: MIC/MBC of native and heated Cipro/Oflox (heat stability); type: cell-based; settings: Staphylococcus aureus, n=6; for MIC: 10^6 S. aureus/ml, TSB; for MBC: broth backplated on agar
Description: An inoculum of S. aureus was diluted to obtain a bacterial concentration of 10^6 S. aureus/ml. […] V. Mosby, St. Louis, 1986]. Antibiotic concentrations in the assay were […].

[1] = Structural stability to heating conditions, dye bath analysis via HPLC; type: physicochemical; settings: heating conditions utilized in pad/heat dyeing; data not shown
[2] = antibiotic heated to 135° C. for 1 hour (dye bath conditions), 24 hours

Q: For `CC1COc2c(N3CCN(C)CC3)c(F)cc3c(=O)c(C(=O)O)cn1c23` (stereo not shown) [Oflox, Ofloxacin], which MIC (S. aureus; [2]) is on record?
A: 0.78 µM

Q: And the MBC (S. aureus; [2])?
A: 9.5 µM

Q: What about the MIC (S. aureus; native antibiotic, turbidity after 24 hours) of the same compound?
A: 0.78 µM

Q: What about the MBC (S. aureus; native antibiotic, 24 hours) of the same compound?
A: 9.5 µM

Q: And the “structural stability upon dye bath analysis via HPLC” value [1]?
A: no structural degradation

Q: For `O=C(O)c1cn(C2CC2)c2cc(N3CCNCC3)c(F)cc2c1=O` [Cipro, Ciprofloxacin], which MBC (S. aureus; [2]) is on record?
A: 6.5 µM

Q: What about the MBC (S. aureus; native antibiotic, 24 hours) of the same compound?
A: 6.5 µM
